ChEMBL document CHEMBL1126406, “Novel oxathiazinones as gastrin ligands : Unexpected preducts from the schotten-baumann reaction of arylsulphonyl chlorides with derivatives of aspartic acid” (1992)

Tests used:
Mus musculus [1] = species: Mus musculus; experiment: Evaluated for the Log A50 value in the isolated mouse stomach assay; assay type: functional
Mus musculus [2] = species: Mus musculus; experiment: The compound was evaluated for the percentage of pentagastrin control in the isolated mouse stomach assay; assay type: functional

What does the source list for NC(=O)C(Cc1ccccc1)NC(=O)[C@H](CC(=O)O)NS(=O)(=O)c1ccc2ccccc2c1 (stereo partly specified)?
Log A50 (Mus musculus [1]): -5.6; Control (Mus musculus [2]): 96%

For Cc1ccc(S2(=O)=N[C@H](C(=O)NC(Cc3ccccc3)C(N)=O)CC(=O)O2)cc1 (stereo partly specified), which “Log A50” value (Mus musculus [1]) is on record?
Its value is -5.3.

And the Control (Mus musculus [2])?
The Control was 56%.

Which results are given for NC(=O)C(Cc1ccccc1)NC(=O)[C@@H]1CC(=O)OS(=O)(c2ccc3ccccc3c2)=N1 (stereo partly specified)?
Log A50 (Mus musculus [1]): -8.1; Control (Mus musculus [2]): 67%
